Measured values published in patent US8852590B2, “Compositions and methods for treating cancer” (Merck Sharp & Dohme Corp., priority 2009, dated 2014).
Entries after “also recorded” stand apart in the source; their conditions may differ.

Assays:
[1] = system: noninfected Sf9 insect cells; test: FACScan reactivity of MAb on noninfected Sf9 insect cells; format: binding
Method: For the immunization stage, mice were injected twice, by the subcutaneous route, with 8 μg of recombinant IGF-IR. Three days before the fusion of the cells of the […] with the cells of the murine myeloma Sp2OAg14, the mice were stimulated by an intravenous injection of 3 μg of the recombinant receptor. Fourteen days after the fusion, the supernatants of hybridomas were screened by ELISA, on plates sensitized by recombinant IGF-IR. The hybridomas whose supernatants were found positive were conserved and amplified before being tested on the FACS can so as to verify that the antibodies produced were likewise capable of recognizing native IGF-IR. In order to do this, MCF-7 cells from an estrogen-dependent tumor of the breast overexpressing IGF-IR were incubated with each of the culture supernatants produced by the hybridomas selected in ELISA. […] At this stage of the selection, only the hybridomas secreting MAb at the same time recognizing the recombinant receptor and the native receptor were selected and cloned. The MAb secreted by these hybridomas were produced and then purified before being tested on the FACScan, according to the method described above, on […] expressing IGF-IR or IR in order to eliminate the hybridomas at the same time recognizing the two receptors.

MCF-7 cells = test: IGF-I induced proliferation of MCF-7 cells (tritiated thymidine incorporation); format: cell-based; settings: antibody 10 μg/ml; IGF-I 1 to 50 ng/ml
Description: The cell proliferation is estimated by following on the […] the incorporation of tritiated thymidine by the cells. The results are expressed as a proliferative index.

MCF-7 tumor = test: Established MCF-7 tumor model in nude mice; format: in vivo; settings: 250 μg/dose/mouse twice per week, 5 to 6 weeks
Method: The in vivo selection was carried out in an established tumor model. In order to do this, nude mice received a subcutaneous implant of slow-release estrogen, indispensable for the taking of the tumor in a murine model. Twenty-four hours after implantation of the estrogens, 5.10^6 MCF-7 cells are grafted onto the right flank of the mouse subcutaneously. Five days after this cell graft, the tumors are measurable and batches of 6 mice are formed at random. The treatment of the mice is carried out twice per week, during 5 to 6 weeks, at the dose of 250 μg/dose/mouse. In the control group, the mice are treated in the same fashion with a murine control isotype.

[2] = system: A549 human NSCLC xenograft; test: A549 mutant-KRAS lung xenograft model; format: in vivo, athymic Nude-Foxn1nu mice
Method: Method: 2.5×10^6 A549 human NSCLC cells were injected subcutaneously into the right flank of 4-6 week old athymic Nude-Foxn1nu mice (Charles River Laboratories). When tumors reached a size of ˜300 mm3 (Length*Width*Width*0.5), mice were randomized into treatment groups. […] Animals were weighed and tumor volumes were determined by calipering 2 times per week during the study and at termination. Tumor weight was determined at termination. On day 21 Animals were sacrificed by CO2 asphyxiation. Mice were sacrificed 24 hr after the final dose. At time of sacrifice, the tissue samples were collected and processed.

AKT-P = settings: treatment of patients, O'Reilly et al 2006; cited from earlier work
[3] = system: PI3 Kinase signaling pathway in H2122 cells; test: Western blot of PI3K pathway signaling in H2122 cells; format: cell-based, human; settings: 4 hrs
Method: Methods: All the NSCLC cell lines were obtained from ATCC and maintained in RPMI 1640 with 10% fetal bovine serum (Invitrogen). […] Samples were western blotted with indicated total or phosphospecific antibodies followed by a secondary antibody (Cell Signaling Technology, CST) and then incubated with SuperSignal chemiluminescence substrate (Pierce). The blots were then exposed to a Kodak Biomax Light Film. The antibodies against ERK, p-ERK (Thr202/Tyr204), AKT and p-AKT (Ser473), IGF S6K & P-S6K (T389), IRS1 & P-IRS1 (S302) and actin were obtained from CST. Cell cycle analysis was performed in H2122 cells following 24 hr treatment with indicated compounds (see above). One million cells were permiabilized and stained with propidium Iodide (PI) as described by the manufacturer (BD Pharmingen #550825). PI binds to both DNA and RNA, so the latter was removed by digestion with ribonucleases (RNase A). The content of DNA as determined by flow cytometry, can reveal useful information about the cell cycle. Cells in G2 and M phases of the cell cycle have double the DNA content of those in G0 and G1 phases. Cells in S phase have a DNA content lying between these extremes. PI is detected in the orange range of the spectrum using a 562-588 nm band pass filter using a flow cytometer. […] Both compounds act by inhibiting oncogenic signaling through the PI3 Kinase signaling pathway. […]

A549 cell line = test: Soft agar colony formation assay, A549; format: cell-based, human; settings: Ridaforolimus 10 nM, MK-0646 10 ug/ml, no supplemented IGF
Method: (§1) The colony formation assay was performed in the absence of supplemented IGF. […] No significant correlation of KRAS-status and response to the combination was observed.
(§2) Methods: Soft agar assays were conducted in 96 well glass bottom plates (MatriCal). Cells were seeded at a concentration of 3,000-9,000 cells per well in 100 μl RMPI 1640 supplemented with 14% FBS and 0.3% (w/v) SeaPlaque Agarose (Lonza Rockland, Inc) on top of a bottom layer of consisting of the same culture media supplemented with 0.8% agarose. Compounds were added in 100 μl of culture media supplemented after agarose had solidified. Cells were incubated for 7-14 days before staining overnight with LavaCell (Active Motif). Colonies were quantified using an Isocyte™ laser scanning cytometer. […] The RTK status was evaluated in total protein lysates using the P-RTK arrays (R&D biosciences) as described by the manufacturer. The activating mutations in KRAS were identified from published cancer genome data bases (Sanger).

H2122 cell line = test: Soft agar colony formation assay, H2122; format: cell-based, human; settings: Ridaforolimus 10 nM, MK-0646 10 ug/ml, no supplemented IGF
Method: as §1, §2

H1703 = test: Soft agar colony formation assay, H1703; format: cell-based, human; settings: H1703, low expression of IGF1R
Method: as §1, §2

## 7C10: murine monoclonal antibody secreted by hybridoma deposited at CNCM, IgG1, directed against IGF-IR [Example 7C10]
[1]
  MFI (Mean fluorescence intensity): 8.6
MCF-7 cells
  inhibition of proliferation of MCF-7 cells induced by IGF-I: significantly inhibits
MCF-7 tumor
  inhibition of tumor growth: very significant inhibition

## C#Cc1cccc(Nc2ncnc3cc(OCCOC)c(OCCOC)cc23)c1 [Erlotinib]
[2]; Erlotinib treated group compared to vehicle
  tumor growth inhibition: No significant growth inhibition; also recorded: did not result in any appreciable tumor growth inhibition

## CO[C@H]1C[C@@H]2CC[C@@H](C)[C@@](O)(O2)C(=O)C(=O)N2CCCC[C@H]2C(=O)O[C@H]([C@H](C)C[C@@H]2CC[C@@H](OCCO)[C@H](OC)C2)CC(=O)[C@H](C)/C=C(\C)[C@@H](O)[C@@H](OC)C(=O)[C@H](C)C[C@H](C)/C=C/C=C/C=C/1C [RAD001]
AKT-P
  AKT-P level in patients: elevated AKT-P

## CO[C@H]1C[C@@H]2CC[C@@H](C)[C@@](O)(O2)C(=O)C(=O)N2CCCC[C@H]2C(=O)O[C@H]([C@H](C)C[C@@H]2CC[C@@H](OP(C)(C)=O)[C@H](OC)C2)CC(=O)[C@H](C)/C=C(\C)[C@@H](O)[C@@H](OC)C(=O)[C@H](C)C[C@H](C)/C=C/C=C/C=C/1C [Ridaforolimus, Dimethyl-Phosphinic Acid C-43 Rapamycin Ester]
[3]; Ridaforolimus 10 nM
  phosphorylation of S6K: preventing
A549 cell line
  soft agar growth inhibition: only limited single agent activity
H2122 cell line
  soft agar growth inhibition: only limited single agent activity
[2]; Rida 0.1mpk, 3 weeks, end of treatment
  Relative tumor growth: 35.01%

## MK-0646: humanized antibody binding IGF-1R as well as the IR/IGF-1 hybrid receptor
[3]; MK-0646 10 ng/ml
  AKT phosphorylation: preventing
A549 cell line
  soft agar growth inhibition: only limited single agent activity
H2122 cell line
  soft agar growth inhibition: only limited single agent activity
H1703
  soft agar single agent sensitivity: resistant
